For assay [1], the target named is T1, Bile acid receptor (Homo sapiens, UniProt Q96RI1).
T1 sequence (Q96RI1 whole entry): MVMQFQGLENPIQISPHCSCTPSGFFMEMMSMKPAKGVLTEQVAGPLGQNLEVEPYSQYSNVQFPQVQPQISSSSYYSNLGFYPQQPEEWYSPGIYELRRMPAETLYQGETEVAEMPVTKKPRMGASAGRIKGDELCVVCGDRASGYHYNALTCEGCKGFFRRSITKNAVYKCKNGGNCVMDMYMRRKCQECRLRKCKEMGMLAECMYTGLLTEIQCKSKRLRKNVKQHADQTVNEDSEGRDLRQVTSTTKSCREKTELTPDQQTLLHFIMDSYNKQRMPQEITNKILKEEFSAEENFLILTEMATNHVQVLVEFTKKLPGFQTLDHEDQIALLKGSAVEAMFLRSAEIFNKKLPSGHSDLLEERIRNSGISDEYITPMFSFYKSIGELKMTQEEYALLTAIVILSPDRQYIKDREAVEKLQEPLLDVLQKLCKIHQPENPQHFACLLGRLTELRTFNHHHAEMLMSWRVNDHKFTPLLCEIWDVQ
Put plainly: Agonist activity at Gal4-fused FXR LBD (unknown origin) transfected in HEK293T cells co-transfected with Peak12-Gal4UAS-luciferase reporter assessed as receptor transactivation incubated for 24 hrs by firefly luciferase assay. It counts as cell-based. In general terms: A reporter such as luciferase makes a cellular process visible.

In assay [2] the test system is Mus musculus. The assay can be described thus: Anti-hyperlipidemic activity in high fat diet induced obese C57BL/6J mouse model assessed as decrease in total cholesterol level at 200 mg/kg. It counts as functional, organism-based.
For assay [3], the system named is Mus musculus. The assay can be described thus: Anti-hyperlipidemic activity in high fat diet induced obese C57BL/6J mouse model assessed as decrease in hepatic triglyceride level at 200 mg/kg. The assay is classed as functional, organism-based.
Assay [4] relates to Mus musculus. Put plainly: Anti-hyperlipidemic activity in high fat diet induced obese C57BL/6J mouse model assessed as decrease in hepatic total cholesterol level at 200 mg/kg. It counts as functional, organism-based.
For assay [5], the system named is Mus musculus. The assay can be described thus: Anti-hyperlipidemic activity in high fat diet induced obese C57BL/6J mouse model assessed as decrease in hepatic low density lipoprotein cholesterol level at 200 mg/kg. The assay is classed as functional, organism-based.
In assay [6] the test system is Mus musculus. Put plainly: Anti-hyperlipidemic activity in high fat diet induced obese C57BL/6J mouse model assessed as improvement in insulin sensitivity at 200 mg/kg by insulin tolerance test. The assay is classed as functional, organism-based.

Molecules are shown by their SMILES. Activity calls are given as the source filed them. The calls are words filed in the database; no cut-off is given here.

Consider `O=C(N1CCN(c2cc(Cl)ccc2O)CC1)C12CC3CC(CC(C3)C1)C2`, for which, in assay [1], the 50% effective concentration (EC50) – broadly, the concentration at which the effect is half-maximal – was determined as 2140 nM.

As for `Cc1ccc(Cl)cc1N1CCN(C(=O)C23CC4CC(CC(C4)C2)C3)CC1`, the result in assay [2], in assay [4], in assay [5] and in assay [6] was inactive. Besides, the outcome in assay [3] was Active.
